How the values were obtained:
[1] = target: T1, WT EML4-ALK (NIH-3T3 EML4-ALK wt v1 cells) (Homo sapiens, UniProt Q9UM73); assay: Cellular phospho-ALK (Tyr1604) ELISA assay for WT EML4-ALK; format: cell-based; conditions: 1 hour, read-out: ELISA assay for WT EML4-ALK (IC50)
T1 construct: expressed in transfected cells; the other entry of the earlier key: EML4 (Q9HC35, Echinoderm microtubule-associated protein-like 4)

[2] = target: T2, human recombinant wild-type ALK kinase domain (amino acids 1093-1411) (Homo sapiens, UniProt Q9UM73); assay: Wild-type ALK enzyme assay (microfluidic mobility shift); format: biochemical; conditions: ATP 60 μM, competitive inhibition fit, read-out: WT ALK enzyme assay (Ki)
T2 construct: ALK kinase domain (amino acids 1093-1411); made in house
Protocol: The reactions were incubated for 1 h at room temperature, stopped by the addition of 0.1 M EDTA, pH 8, and the extent of reactions (˜15-20% conversion with no inhibitor) was determined after electrophoretic separation of the fluorescently labeled peptide substrate and phosphorylated product on an LabChip EZ Reader II (Caliper Life Sciences, Hopkinton, Mass.).

[3] = target: T3, human recombinant L1196M ALK kinase domain (amino acids 1093-1411) (Homo sapiens, UniProt Q9UM73, L1196M); assay: L1196M mutant ALK enzyme assay (microfluidic mobility shift); format: biochemical; conditions: ATP 60 μM, 0.5 nM enzyme, competitive inhibition fit; read-out: L1196M ALK enzyme assay (Ki)
T3 construct: ALK kinase domain (amino acids 1093-1411); made in house

[4] = target: T4, L1196M EML4-ALK (NIH-3T3 EML4-ALK v1 L1196M cells) (Homo sapiens, UniProt Q9UM73, L1196M); assay: Cellular phospho-ALK (Tyr1604) ELISA assay for L1196M EML4-ALK; format: cell-based; conditions: NIH-3T3 EML4-ALK v1 L1196M cells, 1 hour, phospho-ALK (Tyr1604); read-out: ELISA assay for L1196M EML4-ALK (IC50)
T4 construct: expressed in transfected cells; the other entry of the earlier key: EML4 (Q9HC35, Echinoderm microtubule-associated protein-like 4)
Protocol: Cellular Phospho-ALK (Tyr1604) ELISA Assay for EML4-ALK:
The cells were maintained at 37° C. in a 5% CO2 incubator in DMEM (Invitrogen, Carlsbad, Calif.) medium supplemented with 1% L-glutamine, 1% penicillin and streptomycin, 1 ug/ml puromycin and 10% new born calf serum (NCS) in T-75 flasks.
Cells were washed with PBS and re-suspended in DMEM medium supplemented with 0.5% NCS and 1% pen/strep and seeded into 96-well plates at density of 20,000 cells/well/100 μl and incubated in the incubator at 37° C. and 5% CO2. After 20 hours of incubation, 100 μl of assay media (DMEM) in presence of designated PF-compounds concentrations or controls (DMSO) were added into plates and incubated for 1 hour in the incubator. Media was then removed and lysis buffer, containing phosphatase inhibitors and phenylmethanesulfonyl fluoride (PMSF), was added to wells and shaken at 4° C. for 30 minutes to generate protein lysates.
A phospho-ALK (Tyr1604) rabbit antibody was coated onto the 96-well microplates. 50 μl of cell lysates were added to the antibody coated plate and incubated at room temperature for 2 hours. Following extensive washing with 0.1% Tween 20 in PBS to remove unbound materials, ALK mouse mAb was added to detect captured phospho-ALK (Tyr1604) and phospho-ALK fusion proteins. Anti-mouse IgG, HRP-linked antibody was then used to recognize the bound detection antibody. Finally, the chemiluminescent reagent was added and incubated for 10 minutes for signal development. The assay plates were read in the Envision plate reader in the luminescent mode. IC50 values were calculated by a concentration-response curve fitting using a four-parameter analytic method.

Structure (SMILES) | IC50 [1] [nM] | Ki [2] [nM] | Ki [3] [nM] | IC50 [4] [nM]
CCc1onc2c1-c1cnc(N)c(n1)O[C@H](C)c1cc(F)ccc1C(=O)N(C)C2 [Example 48, (10R)-7-amino-3-ethyl-12-fluoro-10,16-dimethyl-16,17-dihydro-8,4-(azeno)[1,2]oxazolo[4,3-h][2,5,11]benzoxadiazacyclotetradecin-15(10H)-one] | 6.75 | 0.2 | 1.2 | 68.9
CCn1ncc2c1-c1cnc(N)c(n1)O[C@H](C)c1cc(F)ccc1C(=O)N(C)C2 [Example 49, (10R)-7-amino-3-ethyl-12-fluoro-10,16-dimethyl-16,17-dihydro-3H-8,4-(azeno)pyrazolo[3,4-h][2,5,11]benzoxadiazacyclotetradecin-15(10H)-one] | 4.08 | 0.17 | 1.5 | 80.8
C[C@H]1Oc2cc(cnc2N)-c2c(nc3ccccn23)CN(C)C(=O)c2ccc(F)cc21 [Example 50, (5R)-8-amino-3-fluoro-5,19-dimethyl-18,19-dihydro-7,11-(metheno)pyrido-[2′,1′:2,3]imidazo[4,5-h][2,5,11]benzoxadiazacyclotetradecin-20(5H)-one] | 2.37 | 0.14 | 1.2 | 29.7
COc1snc2c1-c1cnc(N)c(n1)O[C@H](C)c1cc(F)ccc1C(=O)N(C)C2 [Example 51, (10R)-7-amino-12-fluoro-3-methoxy-10,16-dimethyl-16,17-dihydro-8,4-(azeno)[1,2]thiazolo[4,3-h][2,5,11]benzoxadiazacyclotetradecin-15(10H)-one] | 0.95 | 0.13 | 0.28 | 6.25
C[C@H]1Oc2cc(cnc2N)-c2c(nn(C)c2C#N)CN(C2CC2)C(=O)c2ccc(F)cc21 [Example 55, (10R)-7-amino-16-cyclopropyl-12-fluoro-2,10-dimethyl-15-oxo-10,15,16,17-tetrahydro-2H-8,4-(metheno)pyrazolo[4,3-h][2,5,11]benzoxadiazacyclotetradecine-3-carbonitrile] | 1.03 | < 0.07 | 0.24 | 13.4
CC1Cc2cc(cnc2N)-c2c(nn(C)c2C#N)CN(C)C(=O)c2ccc(F)cc21 (centres unmarked) [Example 61, 7-amino-12-fluoro-2,10,16-trimethyl-15-oxo-2,9,10,15,16,17-hexahydro-8,4-(metheno)pyrazolo[3,4-d][2,8]benzodiazacyclotetradecine-3-carbonitrile] | 4.82 | 0.15 | 0.17 | 17.1
CC1Cc2cc(cnc2N)-c2c(nn(C)c2C(N)=O)CN(C)C(=O)c2ccc(F)cc21 (centres unmarked) [Example 62, 7-amino-12-fluoro-2,10,16-trimethyl-15-oxo-2,9,10,15,16,17-hexahydro-8,4-(metheno)pyrazolo[3,4-d][2,8]benzodiazacyclotetradecine-3-carboxamide] | 7610 | 137 | 253 | > 10000
CC1Oc2nc(cnc2N)-c2c(C#N)nn3c2C(CC3)N(C)C(=O)c2ccc(F)cc21 [Example 74, (9R)-6-amino-11-fluoro-9,15-dimethyl-14-oxo-9,14,15,15a,16,17-hexahydro-7,3-(azeno)-8-oxa-1,5,15,17a-tetraazabenzo[11,12]cyclotetradeca[1,2,3-cd]pentalene-2-carbonitrile] | 11.4 | 0.3 | 0.86 | 51.9
CC1Oc2nc(cnc2N)-c2c(C#N)nn3c2C(CC3)N(C)C(=O)c2ccc(F)cc21 [Example 75, (9R)-6-amino-11-fluoro-9,15-dimethyl-14-oxo-9,14,15,15a,16,17-hexahydro-7,3-(azeno)-8-oxa-1,5,15,17a-tetraazabenzo[11,12]cyclotetradeca[1,2,3-cd]pentalene-2-carbonitrile] | 0.902 | 0.065 | 0.095 | 7.06
CC1c2nn(C)c(C#N)c2-c2cnc(N)c(n2)OCc2cc(F)ccc2C(=O)N1C (centres unmarked) [Example 78, 7-amino-12-fluoro-2,16,17-trimethyl-15-oxo-10,15,16,17-tetrahydro-2H-8,4-(azeno)pyrazolo[4,3-h][2,5,11]benzoxadiazacyclotetradecine-3-carbonitrile] | 40.8 | 2.93 | 9.61 | 350
C[C@H]1Oc2nc(cnc2N)-c2c(nn(CC(F)F)c2C#N)CN(C)C(=O)c2ccc(F)cc21 [Example 91, (10R)-7-amino-2-(2,2-difluoroethyl)-12-fluoro-10,16-dimethyl-15-oxo-10,15,16,17-tetrahydro-2H-8,4-(azeno)pyrazolo[4,3-h][2,5,11]benzoxadiazacyclotetradecine-3-carbonitrile] | 0.68 | 0.177 | 0.315 | 5.88
CC(C)n1nc2c(c1C#N)-c1cnc(N)c(n1)O[C@H](C)c1cc(F)ccc1C(=O)N(C)C2 [Example 92, (10R)-7-amino-12-fluoro-10,16-dimethyl-15-oxo-2-(propan-2-yl)-10,15,16,17-tetrahydro-2H-8,4-(azeno)pyrazolo[4,3-h][2,5,11]benzoxadiazacyclotetradecine-3-carbonitrile] | 0.47 | 0.23 | 0.21 | 3.66
C[C@H]1Oc2nc(cnc2N)-c2c(nn(C3COC3)c2C#N)CN(C)C(=O)c2ccc(F)cc21 [Example 93, (10R)-7-amino-12-fluoro-10,16-di methyl-2-(oxetan-3-yl)-15-oxo-10,15,16,17-tetrahydro-2H-8,4-(azeno) pyrazolo[4,3-h][2,5,11]benzoxadiazacyclotetradecine-3-carbonitrile] | 3.23 | 0.048 | 0.3 | 31.7
CCc1snc2c1-c1cnc(N)c(c1)O[C@H](C)c1cc(F)ccc1C(=O)N(C)C2 [Example 110, (10R)-7-amino-3-ethyl-12-fluoro-10,16-dimethyl-16,17-dihydro-8,4-(metheno)[1,2]thiazolo[4,3-h][2,5,11]benzoxadiazacyclotetradecin-15(10H)-one] | 9.99 | 0.56 | 7.3 | 447
COc1noc2c1-c1cnc(N)c(c1)O[C@H](C)c1cc(F)ccc1C(=O)N(C)C2 [Example 111, (10R)-7-amino-12-fluoro-3-methoxy-10,16-dimethyl-16,17-dihydro-8,4-(metheno)[1,2]oxazolo[4,5-h][2,5,11]benzoxadiazacyclotetradecin-15(10H)-one] | 1.42 | 0.059 | 0.54 | 32.5
CCc1nsc2c1-c1cnc(N)c(c1)O[C@H](C)c1cc(F)ccc1C(=O)N(C)C2 [Example 112, (10R)-7-amino-3-ethyl-12-fluoro-10,16-dimethyl-16,17-dihydro-8,4-(metheno)[1,2]thiazolo[4,5-h][2,5,11]benzoxadiazacyclotetradecin-15(10H)-one] | 9.67 | 0.32 | 3.4 | 248
C[C@H]1Oc2cc(cnc2N)-c2c(C#N)nn(C)c2CN(C)C(=O)c2ccc(F)cc21 [Example 114, (10R)-7-amino-12-fluoro-1,10,16-trimethyl-15-oxo-10,15,16,17-tetrahydro-1H-8,4-(metheno)pyrazolo[4,3-h][2,5,11]benzoxadiazacyclotetradecine-3-carbonitrile] | 3.29 | 0.271 | 1.36 | 78.2

Reference: patent publication US8680111B2 (Pfizer Inc., priority 2012, dated 2014)
